Experimental data taken from PMC7265447, “Ultra-rapid glutathionylation of chymotrypsinogen in its molten globule-like conformation: A comparison to archaeal proteins” (Scientific Reports, 2020).

How the values were obtained:
[1] = biological target: T1, reduced Bacterioferritin Comigratory Protein 1 (rBcp1) (Saccharolobus solfataricus, UniProt Q97WP9); assay: Cys-DNB adduct absorbance at […] nm; assay type: binding; settings: pH 7.4, 0.12 M urea, 25 °C, covalent, 1 -SH/mol
T1 construct: gene bcp-1; recombinant in E. coli BL21(DE3)-RIL (pET30Bcp1), HisTrap purified, 18 kDa band

[2] = biological target: T2, reduced α-chymotrypsinogen A (rChTg) (Bos taurus, UniProt P00766); assay: Cys-DNB adduct absorbance at […] nm; assay type: binding; settings: pH 5.0, 0.28 M urea, 25 °C; reduced protein; covalent; average of 10 -SH
[3] = biological target: T3, reduced Protein Disulphide Oxidoreductase (rSsPDO) (Saccharolobus solfataricus, UniProt Q980T5); assay: Cys-DNB adduct absorbance at […] nm; assay type: binding; settings: pH 7.4, 0.4 M urea, 25 °C, covalent, 3 -SH/mol
T3 construct: gene SSO0192; recombinant in E. coli, HisTrap and Resource Q purified, about 27 kDa band
T3 sequence (Q980T5 1-233): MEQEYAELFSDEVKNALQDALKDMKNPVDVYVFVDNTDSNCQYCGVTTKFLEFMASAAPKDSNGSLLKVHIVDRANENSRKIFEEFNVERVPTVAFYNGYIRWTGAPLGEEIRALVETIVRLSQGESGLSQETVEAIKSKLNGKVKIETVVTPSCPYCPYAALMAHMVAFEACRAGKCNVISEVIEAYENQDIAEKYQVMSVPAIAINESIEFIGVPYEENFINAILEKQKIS

[4] = biological target: T1, reduced Bacterioferritin Comigratory Protein 1 (rBcp1); assay: Cys-NBD adduct absorbance at […] nm; assay type: binding; settings: pH 7.4, 0.12 M urea, 25 °C, covalent, 1 -SH/mol
[5] = biological target: T3, reduced Protein Disulphide Oxidoreductase (rSsPDO); assay: Cys-NBD adduct absorbance at […] nm; assay type: binding; settings: pH 7.4, 0.4 M urea, 25 °C, covalent, 2 -SH/mol
[6] = biological target: T2, reduced α-chymotrypsinogen A (rChTg); assay: Cys-NBD adduct absorbance at […] nm; assay type: binding; settings: pH 5.0, 0.28 M urea, 25 °C; reduced protein; covalent; average of 10 -SH
[7] = biological target: T3, reduced Protein Disulphide Oxidoreductase (rSsPDO); assay: loss of reactive Cys, DTNB titration; assay type: binding; settings: pH 7.4, 0.4 M urea, 25 °C, covalent, 2 -SH/mol
Description: loss of reactive Cys, DTNB titration on reduced Protein Disulphide Oxidoreductase (rSsPDO)

[8] = biological target: T1, reduced Bacterioferritin Comigratory Protein 1 (rBcp1); assay: loss of reactive Cys, DTNB titration; assay type: binding; settings: pH 7.4, 0.2 M urea, 25 °C, covalent, 1 -SH/mol
Description: loss of reactive Cys, DTNB titration on reduced Bacterioferritin Comigratory Protein 1 (rBcp1)

[9] = biological target: T2, reduced α-chymotrypsinogen A (rChTg); assay: thiol loss, DTNB titration; assay type: binding; settings: pH 5.0, 0.2 M urea, 25 °C; reduced protein; covalent; 8 -SH/mol
Description: thiol loss, DTNB titration on reduced α-chymotrypsinogen A (rChTg)

Cys50 = Cys50 (UniProt position 50, STREACAFRDN); assay: chemical modification; settings: 25 °C; 20 mM Britton-Robinson buffers; reduced, molten globule-like conformation in 0.2 M urea; 2.6 µM protein
Cys45 = Cys45 (UniProt position 45, DDTPGCTREAS); assay: chemical modification; settings: 25 °C; 20 mM Britton-Robinson buffers; reduced, molten globule-like conformation in 0.2 M urea; 2.6 µM protein

T1 sequence (Q97WP9 entry or part of it): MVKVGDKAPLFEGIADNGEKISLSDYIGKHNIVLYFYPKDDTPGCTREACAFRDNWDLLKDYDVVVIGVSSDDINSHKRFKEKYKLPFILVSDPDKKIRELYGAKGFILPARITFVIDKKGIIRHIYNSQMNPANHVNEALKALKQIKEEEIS

O=[N+]([O-])c1ccc(Cl)c([N+](=O)[O-])c1 [CDNB, 1-chloro-2,4-dinitrobenzene]
Reduced Bcp1 / k (M^-1 s^-1) (-SH/mole Bcp1) [1]: 0.55 ± 0.03 M⁻¹ s⁻¹ | Reduced ChTg / k (M^-1 s^-1) (-SH/mol ChTg) [2]: 0.19 ± 0.01 M⁻¹ s⁻¹ | Reduced SsPDO / k (M^-1 s^-1) (-SH/mole SsPDO) [3]: 1.6 ± 0.1 M⁻¹ s⁻¹

O=[N+]([O-])c1ccc(Cl)c2nonc12 [NBD-Cl, 4-chloro-7-nitrobenzofurazan]
Reduced Bcp1 / k (M^-1 s^-1) (-SH/mole Bcp1) [4]: 27 ± 3 M⁻¹ s⁻¹ | Reduced SsPDO / k (M^-1 s^-1) (-SH/mole SsPDO) [5]: 72 ± 3 M⁻¹ s⁻¹ | Reduced ChTg / k (M^-1 s^-1) (-SH/mol ChTg) [6]: 12.6 ± 0.5 M⁻¹ s⁻¹

NCCSSCCN [cystamine]
Reduced SsPDO / k (M^-1 s^-1) (-SH/mole SsPDO) [7]: 20 ± 2 M⁻¹ s⁻¹ | Reduced Bcp1 / k (M^-1 s^-1) (-SH/mole Bcp1) [8]: 33 ± 3 M⁻¹ s⁻¹

N[C@@H](CSSC[C@H](N)C(=O)O)C(=O)O [cystine]
Reduced SsPDO / k (M^-1 s^-1) (-SH/mole SsPDO) [7]: 10 ± 2 M⁻¹ s⁻¹ | Reduced Bcp1 / k (M^-1 s^-1) (-SH/mole Bcp1) [8]: 115 ± 10 M⁻¹ s⁻¹ | Reduced ChTg / k (M^-1 s^-1) (-SH/mol ChTg) [9]: 0.56 ± 0.02 M⁻¹ s⁻¹

N[C@@H](CCSSCC[C@H](N)C(=O)O)C(=O)O [homocystine]
Reduced SsPDO / k (M^-1 s^-1) (-SH/mole SsPDO) [7]: 6 ± 1 M⁻¹ s⁻¹ | Reduced Bcp1 / k (M^-1 s^-1) (-SH/mole Bcp1) [8]: 15 ± 1 M⁻¹ s⁻¹

Bacterioferritin comigratory protein 1 (Bcp1) C45S mutant, reduced (rC45S) (Sulfolobus solfataricus (Saccharolobus solfataricus); C45S)
pKa (Cys50): 7.6 ± 0.1

Bacterioferritin comigratory protein 1 (Bcp1) C50S mutant, reduced (rC50S) (Sulfolobus solfataricus (Saccharolobus solfataricus); C50S)
pKa (Cys45): 7.9 ± 0.1
